Measured values: paper PMC4787807 (Nucleic Acids Research, 2015)

Molecular target: EAV nsp9 (Equine arteritis virus Bucyrus, UniProt P19811)
Assay: covalent labelling, tryptic digest and nano-LC-MS/MS

EAV nsp9, sequence (P19811 1678-2370): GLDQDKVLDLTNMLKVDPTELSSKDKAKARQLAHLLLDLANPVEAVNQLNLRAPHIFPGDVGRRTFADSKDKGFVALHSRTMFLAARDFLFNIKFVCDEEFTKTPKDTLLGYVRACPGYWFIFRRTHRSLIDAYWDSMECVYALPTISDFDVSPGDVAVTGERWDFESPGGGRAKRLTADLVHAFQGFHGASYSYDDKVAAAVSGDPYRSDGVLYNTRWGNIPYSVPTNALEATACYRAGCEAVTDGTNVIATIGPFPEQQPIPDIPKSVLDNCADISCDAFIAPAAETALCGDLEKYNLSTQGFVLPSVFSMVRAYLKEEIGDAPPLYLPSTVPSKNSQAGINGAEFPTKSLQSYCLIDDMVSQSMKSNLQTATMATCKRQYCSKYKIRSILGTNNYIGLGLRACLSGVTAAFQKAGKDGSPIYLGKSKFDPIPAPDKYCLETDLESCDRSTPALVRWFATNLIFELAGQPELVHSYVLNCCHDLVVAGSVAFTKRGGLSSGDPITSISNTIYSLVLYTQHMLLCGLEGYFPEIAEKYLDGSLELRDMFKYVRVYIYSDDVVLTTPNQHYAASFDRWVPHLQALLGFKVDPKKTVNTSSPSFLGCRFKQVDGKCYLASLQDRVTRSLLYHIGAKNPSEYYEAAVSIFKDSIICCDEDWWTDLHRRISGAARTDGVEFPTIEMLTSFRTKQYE

Nc1nc2c(ncn2[C@@H]2O[C@H](COC(=O)c3ccc(S(=O)(=O)F)cc3)[C@@H](O)[C@H]2O)c(=O)[nH]1 [FSBG, 5′-(4-fluorosulfonylbenzoyl)guanosine]
covalent labelling, tryptic digest and nano-LC-MS/MS: seven modified peptides representing five distinct nsp9 regions could be assigned
